# Experimental data as given in patent US20130216614A1, “IMMUNOGENIC COMPOSITIONS AND METHODS FOR TREATING NUEROLOGIC DISORDERS” (Glaxosmithkline Biologicals S.A., priority 2010, published 2013).
# Assays:
# CD11b+ monocytes = assay: Peripheral blood CD11b+ monocyte number by flow cytometry after single injection; type: in vivo, C57BL/6 mice; conditions: for CD11b+ monocyte number in peripheral blood: 24 hrs after single injection; for circulating monocytes in peripheral blood: intramuscular injection; for circulating monocytes in peripheral blood / total monocytes in the peripheral blood: 24 hrs, normal count 5%; for total monocytes in the peripheral blood: intraperitoneal route
# Excerpt: Monocytes are the peripheral blood precursor cells of microglia (Rezaie, P., et al 1999. Microglia in the human fetal spinal cord—patterns of distribution, morphology and phenotype. Brain Res. Dev. Brain Res. 115:71-81: Mildner et al Nat Neurosci. 2007 December; 10(12):1544-53. Epub 2007 Nov. 18. PubMed PMID: 18026096.). During embryonic development, microglia populate the CNS from myeloid lineage precursors in the bone marrow and these cells are circulating in the peripheral blood before becoming macrophages in their infiltrating tissues, such as microglia are for the brain. Markers such as CD11b and Ly6C are immunologicals markers that are present on peripheral blood monocytes and persist when they are infiltrating the brain (Mildner et al., 2007 infra, Lebson L, et al Trafficking CD11b-positive blood cells deliver therapeutic genes to the brain ofamyloid-depositing transgenic mice. J Neurosci. 2010 Jul. 21; 30(29):9651-8. PubMed PMID: 20660248.). To investigate whether 3D MPL containing adjuvants and s are contributing to induce the number of monocytes in the peripheral blood, we have performed a single injection of those molecules and measure after 24 hrs (post injection) the CD11b+ monocytes number by a flow cytometry method (Mildner A, et al Microglia in the adult brain arise from Ly-6ChiCCR2+ monocytes only under defined host conditions. Nat Neurosci. 2007 December; 10(12):1544-53. Epub 2007 Nov. 18. PubMed PMID: 18026096). As described in FIG. 3, we are showing an increase of CD11b+ monocyte number having that phenotypic composition of markers :CD11b+, lineage cocktail negative (CD3-, B220-, NK1.1-,Ly6C-) after the injection of 3D MPL or AS15 or AS01B or CRX527 or CRX601. Comparing to a normal monocyte number count in the peripheral blood, which is 5% whereas the intramuscular (i.m.) injection of AS01B, and AS15 are showing an increase of the number of circulating monocytes to up to 20%. Moreover, the injection of 3D MPL or CRX601 or CRX601 using the intraperitoneal route is also showing a 22% of total monocytes in the peripheral blood.
# Peripheral blood was drawn from C57BL/6 mice via cardiac puncture with lithium-heparin as anticoagulant, 24-Hour after injection of the TLR adjuvants. Red blood cell lysis was performed twice on pooled blood with Ammonium Chloride-based Buffer (Sigma, Steinheim, Germany) and cells were counted with the EasyCount™ System (Immunicon). After one washing step, 500,000 cells were incubated with Rat anti-Mouse CD16/CD32 (BD Fc Block™ by BD Biosciences) for 10 min. on ice and cells were further incubated for 30 min. with a combination of the following directly conjugated antibodies at their pre-determined optimal concentration as described by Mildner et al., 2007): PerCP labeled-Streptavidin, PE-Hamster anti-Mouse CD3, Rat anti-Mouse CD45R/B220, Rat anti-Mouse Ly-6G, Mouse anti-Mouse NK1.1 APC-conjugated Rat anti-Mouse CD11b, PE-Cy7-conjugated Hamster anti-Mouse CD11c, FITC-Rat Anti-Mouse Ly-6C (all from BD Biosciences) and Pacific Blue™ Rat anti-Mouse CD62L (BioLegend, San Diego, Calif.). Cells were finally washed three times and fixed for 15 min. with a 2% paraformaldehyde solution in PBS. Fluorescence minus one (FMO) controls were always included in the assays for fluorescent compensation setting.
# Samples were acquired on a flow cytometer (BD FACSCanto II) and data analyzed with the FACSDiva software (BD Biosciences).
# Monocytes were identified by their Side/Forward scatter properties and gated as CD3-/CD45R/B220-/Ly-6G-/NK1.1-(Lineage-)/CD11b+ cells. CD11b+ monocytes frequency was reported as a percentage of the total cells excluding debris.
# 24-Hour after injection of the TLR adjuvants, peripheral blood was drawn from C57BL/6 mice via cardiac puncture with lithium-heparin as anticoagulant. Red blood cell lysis was performed twice on pooled blood with Ammonium Chloride-based Buffer (Sigma, Steinheim, Germany) and cells were counted with the EasyCount™ System (Immunicon). […]
# APPSwe/PS1 mice = assay: T-water maze; type: in vivo, mouse; conditions: for T maze reversal test compared with group 1 (PBS): 12x weekly; for spatial memory / behaviour in T water maze compared to non-treated mice: twelve weekly injections, CRX 20 μg i.p., 3D MPL 50 μg i.p., AS01B 1/10th human dose i.m.
# Method: Five groups of APPSwe/PS1 mice have received one a week for a period of 12 weeks the following treatment: • Gr1: APPSwe/PS1+NaCl 0.9% n(=20), i.p. injections • Gr4: APPSwe/PS1+CRX527 (20 μg/mouse, 130 μl, n=10), i.p. injections • Gr5: APPSwe/PS1+CRX601 (20 μg/mouse, 130 μl, n=10), i.p. injections • Gr6: APPSwe/PS1+3D MPL (50 μg/mouse, 130 μl, n=10), i.p. injections • Gr8 APPSwe/PS1+AS15 • Gr9: APPSwe/PS1+AS01B ( 1/10th of human dose μg/kg, 50 μl, n=10), i.m. injections
# Mice were tested during the “light on” phase of the day. Behavioral experimenter was blinded to the genetic and treatment status of animals. To assess hippocampal-dependent spatial learning and memory, mice were trained in the T-water maze task. In this paradigm, we evaluate the mouse's ability to remember the spatial location of submerged platform. The T-maze apparatus (length of stem, 64 cm; length of arms, 30 cm; width, 12 cm; height of walls, 16 cm) was made of clear fiberglass and filled with water (23±1° C.) at a height of 12 cm. A platform (11×11 cm) was placed at the end of the target arm and was submerged 1 cm below the surface. The acquisition phase allows to evaluate animals for left-right spatial learning. During the first two trials, platforms were placed on each arms of the maze to test the spontaneous turning preference of the mouse. After these two trials, the least chosen arm was reinforced by the escape platform. The mice were placed in the stem of the T-maze and choose to swim either left or right until they found the submerged platform and escape to it, to a maximum of 60 s. After reaching the platform, the mice remained on it for 20 s and then were immediately placed back in the maze. […] Repeated trials were presented on the same day up to a maximum of 48 trials. A rest period of at least 10-15 min intervened between each block of 10 trials. A mouse was considered to have learned the task when it made no errors in a block of five consecutive trials. The reversal learning phase was then conducted 48 h later.
# During this phase, the same protocol was repeated, except that the mice were trained to find the escape platform on the opposite side to that on which they had learned on acquisition phase. The number of trials to reach the criterion (five of five correct choices made on consecutive trials) was measured as well as the latency to find the escape platform.
# Further experiments were carried out using the following groups.
Molecule,"CD11b+ monocyte in the peripheral blood (CD11b+ monocytes; 5 μg dose i.m., 24 hours)","peripheral blood monocyte count (CD11b+ monocytes; 50 μg dose i.m., 24 hours)",CD11b+ monocyte number in peripheral blood (CD11b+ monocytes),circulating monocytes in peripheral blood (CD11b+ monocytes),total monocytes in the peripheral blood (CD11b+ monocytes) [%],T maze reversal test compared with group 1 (PBS) (APPSwe/PS1 mice; group 9: intra peritoneal 50 ug per mouse),T maze reversal test compared with group 1 (PBS) (APPSwe/PS1 mice; group 10: i.m. 5 ug per mouse),spatial memory / behaviour in T water maze compared to non-treated mice (APPSwe/PS1 mice),spatial memory / behaviour in T water maze compared to non-treated mice (APPSwe/PS1 mice; listed as 3D-MPL),spatial memory / behaviour in T water maze compared to non-treated mice (APPSwe/PS1 mice; listed as CRX 527),monocyte count effect (CD11b+ monocytes; 20 μg dose i.m.),"amount enough to trigger an increase of the monocyte count (CD11b+ monocytes; single i.m. injection, six doses 0.2 to 20 μg) [µg]",T maze reversal test compared with group 1 (PBS) (APPSwe/PS1 mice; group 3: i.m. 2 ug per mouse),spatial memory / behaviour in T water maze compared to non-treated mice (APPSwe/PS1 mice; listed as CRX 601)
3-O-desacyl-4′-monophosphoryl lipid A [3D MPL],double increase,drop,increase,≤ 13%,22,significantly improved,significantly improved,spatial memory improvement,significant improvements,–,–,–,–,–
CCCCCCCCCCC[C@H](CC(=O)N[C@H]1[C@H](OC[C@H](NC(=O)C[C@@H](CCCCCCCCCCC)OC(=O)CCCCCCCCC)C(=O)O)O[C@H](CO)[C@@H](OP(=O)(O)O)[C@@H]1OC(=O)C[C@@H](CCCCCCCCCCC)OC(=O)CCCCCCCCC)OC(=O)CCCCCCCCC [CRX527],–,–,increase,–,–,–,–,spatial memory improvement,–,significant improvements,–,–,–,–
CCCCCCCCCCC[C@H](CC(=O)N[C@H]1[C@H](OC[C@H](NC(=O)C[C@@H](CCCCCCCCCCC)OCCCCCCCCCC)C(=O)O)O[C@H](CO)[C@@H](OP(=O)(O)O)[C@@H]1OC(=O)C[C@@H](CCCCCCCCCCC)OCCCCCCCCCC)OCCCCCCCCCC [CRX601],–,–,increase,up to 12%,22,–,–,spatial memory improvement,–,–,down modulated,1,significantly improved,significant improvements
